Consider one molecule from patent US20250161286A1 (AEVIS BIO, INC., priority 2022, published 2025).

A short description of the data set: Cytotoxicity evaluation, CCK analysis kit. The data set is classed as cell-based. Conditions: human, MM.1S (CRL-2974) multiple myeloma cells; MM.1S cells, treated for 3 days. The protocol: The MM.1S (CRL-2974) cell line, which is a human multiple myeloma cell line, was purchased from the American Type Culture Collection (ATCC, Manassas, VA, USA) and used, and incubated using RPMI1640 medium (Corning, MD, USA) supplemented with 10% fatal bovine serum (Corning, MD, USA), 100 U/ml of penicillin (Corning, MD, USA), and 100 μg/ml of streptomycin (Corning, MD, USA) at 37° C. in a 5% CO2 incubator for 24 hours.

Molecule `Nc1cccc2c1C(=O)N(C1CCC(=O)NC1=O)C2=O` (racemic) [pomalidomide, (R,S)-4-amino-2-(2,6-dioxopiperidin-3-yl)isoindole-1,3-dione, reference compound] yielded an IC50 at 3 days of 69 nM. This counts as double-digit nanomolar.

The term IC50 denotes the concentration that gives 50% inhibition. The low end stands for inhibition by little substance, the high end for a need for much substance.
